pIC50: −log10 of the molar value.

Among the data in patent publication US11691951B2 (Curtana Pharmaceuticals, Inc., priority 2015, dated 2023) are IC50 values, retold here.

The assay has as its system GBM8 cells (human glioblastoma neurosphere cell culture). The experiment in a line: GBM8 viability assay (Cell Titer Glo luminescence, 3 days). Format: cell-based. The conditions noted are these: 72 h, 3 days incubation. Here is the method:
Example 283: GBM4 and GBM8 Viability Assay
Cell culture medium was prepared from a NSA proliferation kit (Neurocult) and NeuroCult supplements (Stemcell Tech Cat. #05751) and treated with 20 μL of 10 μg/mL rh EGF, 10 μL of 10 μg/mL rh bFGF and 10 μL of 0.2% Heparin. In this medium, human glioblastoma cells were cultured in ultra-low attachment tissue culture flasks until 1×10^6 cells ml was achieved (GBM4 and GBM8 are distinct neurosphere cell cultures derived from these human patient tissues). GBM4 and GBM8 cells were dissociated and 10 mL of media containing 4000 human glioblastoma cells per 90 uL were transferred to an ultra-low binding 96-well plate and incubated at 37° C. overnight. On the following day, 10 μL of a 1% DMSO solution of test compound in assay medium was added to wells containing the cell suspension and the mixture incubated at 37° C. for 3 days. At this time, the plate was removed from the incubator and allowed to reach room temperature. After about 30 minutes, 50 μL of Cell Titer Glo solution was added to each well and the plate shaken for 1 minute at low speed. After 10 minutes luminescence was recorded using a Tecan Safire2 reader.
Reduction in luminescence compared to DMSO only control wells was used to determine the percentage inhibition of cell growth. IC50s were calculated using the % inhibition of luminescence for serial dilutions of compounds fitted to a 4-parameter fit within the Prism (San Diego) curve fitting program.
In general, pIC50 refers to the IC50 on a negative log10 scale, so that one unit is a factor of ten. Low readings indicate a large IC50, high ones a small IC50. Regarding `Cc1cc(NCCN(C)C)nc(NC(=O)Nc2ccccc2)n1` [Compound 74], the pIC50 is 5.00 to 6.00. For `Cc1cc(NCCCN)nc(NC(=O)Nc2ccccc2)n1` [Compound 75], the pIC50 is 5.00 to 6.00. Under `Cc1cc(NCCCCN(C)C)nc(NC(=O)Nc2ccccc2)n1` [Compound 76] stands 5.00 to 6.00. The compound `Cc1cc(NCC(C)O)nc(NC(=O)Nc2ccccc2)n1` (stereo not drawn) [Compound 77] showed a pIC50 of 5.00 to 6.00. Under `Cc1cc(NCC(O)CO)nc(NC(=O)Nc2ccccc2)n1` (stereo not drawn) [Compound 78] stands more than 6.00; under `Cc1cc(NCC(F)(F)CO)nc(NC(=O)Nc2ccccc2)n1` [Compound 79], 5.00 to 6.00; under `CNCCNc1cc(C)nc(NC(=O)Nc2ccccc2)n1` [Compound 82, 1-(4-methyl-6-((2-(methylamino)ethyl)amino)pyrimidin-2-yl)-3-phenylurea], 5.00 to 6.00. Consider `CNCCCNc1cc(C)nc(NC(=O)Nc2ccccc2)n1` [Compound 83, 1-(4-methyl-6-((3-(methylamino)propyl)amino)pyrimidin-2-yl)-3-phenylurea], for which the pIC50 is 5.00 to 6.00. Compound `Cc1cc(NCCCN(C)C)nc(NC(=O)Nc2ccc(OC(F)(F)F)cc2)n1` [Compound 85, 1-(4-((3-(dimethylamino)propyl)amino)-6-methylpyrimidin-2-yl)-3-(4-(trifluoromethoxy)phenyl)urea] gave a pIC50 of more than 6.00. Next, `Cc1cc(NCCCO)nc(NC(=O)Nc2ccc(OC(F)(F)F)cc2)n1` [Compound 86, 1-(4-((3-hydroxypropyl)amino)-6-methylpyrimidin-2-yl)-3-(4-(trifluoromethoxy)phenyl)urea]: more than 6.00; `Cc1cc(NCCN)nc(NC(=O)Nc2ccc(OC(F)(F)F)cc2)n1` [Compound 87, 1-(4-((2-aminoethyl)amino)-6-methylpyrimidin-2-yl)-3-(4-(trifluoromethoxy)phenyl)urea]: more than 6.00. Under `Cc1cc(NCCN(C)C)nc(NC(=O)Nc2ccc(OC(F)(F)F)cc2)n1` [Compound 88] stands more than 6.00.

In turn, `Cc1cc(NCCCN)nc(NC(=O)Nc2ccc(OC(F)(F)F)cc2)n1` [Compound 89] showed a pIC50 of more than 6.00. Under `CCNc1cc(C)nc(NC(=O)Nc2ccc(OC(F)(F)F)cc2)n1` [Compound 90] stands more than 6.00. `CCCNc1cc(C)nc(NC(=O)Nc2ccc(OC(F)(F)F)cc2)n1` [Compound 91] had a pIC50 of more than 6.00. Next, `COC(=O)CCNc1cc(C)nc(NC(=O)Nc2ccc(OC(F)(F)F)cc2)n1` [Compound 92]: more than 6.00; `Cc1cc(NCCC(N)=O)nc(NC(=O)Nc2ccc(OC(F)(F)F)cc2)n1` [Compound 93]: more than 6.00; `Cc1cc(NCC(F)(F)CO)nc(NC(=O)Nc2ccc(OC(F)(F)F)cc2)n1` [Compound 94]: more than 6.00. `Cc1cc(NCC(C)O)nc(NC(=O)Nc2ccc(OC(F)(F)F)cc2)n1` (stereo not drawn) [Compound 95] had a pIC50 of more than 6.00. Under `Cc1cc(NCC(O)CO)nc(NC(=O)Nc2ccc(OC(F)(F)F)cc2)n1` (stereo not drawn) [Compound 96] stands more than 6.00; under `CNCCNc1cc(C)nc(NC(=O)Nc2ccc(OC(F)(F)F)cc2)n1` [Compound 98, 1-(4-methyl-6-((2-(methylamino)ethyl)amino)pyrimidin-2-yl)-3-(4-(trifluoromethoxy)phenyl)urea], more than 6.00. Next, `CNCCCNc1cc(C)nc(NC(=O)Nc2ccc(OC(F)(F)F)cc2)n1` [Compound 99, 1-[4-Methyl-6-(3-methylamino-propylamino)-pyrimidin-2-yl]-3-(4-trifluoromethoxy-phenyl)-urea]: more than 6.00; `Cc1cc(NCCCN(C)C)nc(NC(=O)Nc2ccc(F)c(C(F)(F)F)c2)n1` [Compound 101, 3-(dimethylamino)-1-(2-{3-[4-fluoro-3-(trifluoromethyl)phenyl]ureido}-6-methyl-4-pyrimidinylamino)propane]: more than 6.00; `Cc1cc(NCCCO)nc(NC(=O)Nc2ccc(F)c(C(F)(F)F)c2)n1` [Compound 102, 1-(4-fluoro-3-(trifluoromethyl)phenyl)-3-(4-((3-hydroxypropyl)amino)-6-methylpyrimidin-2-yl)urea]: more than 6.00. Under `Cc1cc(NCCN(C)C)nc(NC(=O)Nc2ccc(F)c(C(F)(F)F)c2)n1` [Compound 103, 1-(4-fluoro-3-(trifluoromethyl)phenyl)-3-(4-((2-(dimethylamino)ethyl)amino)-6-methylpyrimidin-2-yl)urea] stands more than 6.00.

`Cc1cc(NCCCCN(C)C)nc(NC(=O)Nc2ccc(F)c(C(F)(F)F)c2)n1` [Compound 104] gave a pIC50 of more than 6.00. For `Cc1cc(NCCO)nc(NC(=O)Nc2ccc(F)c(C(F)(F)F)c2)n1` [Compound 105], the pIC50 is more than 6.00. Next, `Cc1cc(NCCCCO)nc(NC(=O)Nc2ccc(F)c(C(F)(F)F)c2)n1` [Compound 106]: more than 6.00. Next, `Cc1cc(NCCOCCO)nc(NC(=O)Nc2ccc(F)c(C(F)(F)F)c2)n1` [Compound 107]: more than 6.00. Regarding `Cc1cc(NCC(O)CO)nc(NC(=O)Nc2ccc(F)c(C(F)(F)F)c2)n1` (stereo not drawn) [Compound 108], the pIC50 is more than 6.00. Under `Cc1cc(NCCN)nc(NC(=O)Nc2ccc(F)c(C(F)(F)F)c2)n1` [Compound 110] stands more than 6.00; under `Cc1cc(NCCCN)nc(NC(=O)Nc2ccc(F)c(C(F)(F)F)c2)n1` [Compound 111], more than 6.00; under `Cc1cc(NCCCCN)nc(NC(=O)Nc2ccc(F)c(C(F)(F)F)c2)n1` [Compound 112], more than 6.00. Under `CNCCCN(C)c1cc(C)nc(NC(=O)Nc2ccc(F)c(C(F)(F)F)c2)n1` [Compound 113] stands 5.00 to 6.00; under `Cc1cc(NCCCc2cnc[nH]2)nc(NC(=O)Nc2ccc(F)c(C(F)(F)F)c2)n1` [Compound 115], more than 6.00.

Compound `Cc1cc(NCCC(N)=O)nc(NC(=O)Nc2ccc(F)c(C(F)(F)F)c2)n1` [Compound 116] showed a pIC50 of more than 6.00. Next, `CCNc1cc(C)nc(NC(=O)Nc2ccc(F)c(C(F)(F)F)c2)n1` [Compound 117]: more than 6.00; `CNCCNc1cc(C)nc(NC(=O)Nc2ccc(F)c(C(F)(F)F)c2)n1` [Compound 120, 1-(4-fluoro-3-(trifluoromethyl)phenyl)-3-(4-methyl-6-((2-(methylamino)ethyl)amino)pyrimidin-2-yl)urea]: more than 6.00. Regarding `CNCCCNc1cc(C)nc(NC(=O)Nc2ccc(F)c(C(F)(F)F)c2)n1` [Compound 121], the pIC50 is more than 6.00. For `Cc1cc(NCC2CCCNC2)nc(NC(=O)Nc2ccc(F)c(C(F)(F)F)c2)n1` (stereo not drawn) [Compound 122], the pIC50 is more than 6.00.

Compound `Cc1cc(NC2CCNC2)nc(NC(=O)Nc2ccc(F)c(C(F)(F)F)c2)n1` (stereo not drawn) [Compound 123] gave a pIC50 of more than 6.00.

Regarding `COc1ccc(NC(=O)Nc2nc(C)cc(NCCCN(C)C)n2)cc1` [Compound 125], the pIC50 is more than 6.00. Under `COc1ccc(NC(=O)Nc2nc(C)cc(NCCCCO)n2)cc1` [Compound 126] stands more than 6.00. Under `COc1ccc(NC(=O)Nc2nc(C)cc(NCCN)n2)cc1` [Compound 127] stands more than 6.00; under `CCCNc1cc(C)nc(NC(=O)Nc2ccc(OC)cc2)n1` [Compound 128], more than 6.00. Under `CCCCNc1cc(C)nc(NC(=O)Nc2ccc(OC)cc2)n1` [Compound 129] stands more than 6.00. On to `COc1ccc(NC(=O)Nc2nc(C)cc(NCCO)n2)cc1` [Compound 130], for which the negative logarithm of the IC50 (pIC50) was more than 6.00. Next, `COc1ccc(NC(=O)Nc2nc(C)cc(NCCCN)n2)cc1` [Compound 131]: more than 6.00.

Regarding `COc1ccc(NC(=O)Nc2nc(C)cc(NCCOCCO)n2)cc1` [Compound 132], the pIC50 is more than 6.00. Next, `COc1ccc(NC(=O)Nc2nc(C)cc(NCC(C)O)n2)cc1` (stereo not drawn) [Compound 133]: more than 6.00; `COc1ccc(NC(=O)Nc2nc(C)cc(NCCc3ccccn3)n2)cc1` [Compound 134]: 5.00 to 6.00; `COc1ccc(NC(=O)Nc2nc(C)cc(NCC(O)CO)n2)cc1` (stereo not drawn) [Compound 135]: more than 6.00. Next, `COc1ccc(NC(=O)Nc2nc(C)cc(NCCCCN)n2)cc1` [Compound 137]: more than 6.00.

Compound `COc1ccc(NC(=O)Nc2nc(C)cc(NCCN(C)C)n2)cc1` [Compound 138] showed a pIC50 of more than 6.00. Regarding `CCNc1cc(C)nc(NC(=O)Nc2ccc(OC)cc2)n1` [Compound 139], the pIC50 was more than 6.00. Under `COc1cccc(NC(=O)Nc2nc(C)cc(NCCCN(C)C)n2)c1` [Compound 141] stands 5.00 to 6.00; under `COc1cccc(NC(=O)Nc2nc(C)cc(NCCCCN)n2)c1` [Compound 142], 5.00 to 6.00. Under `COc1cccc(NC(=O)Nc2nc(C)cc(NCCCN)n2)c1` [Compound 143] stands 5.00 to 6.00; under `COc1cccc(NC(=O)Nc2nc(C)cc(NCCN)n2)c1` [Compound 144], 5.00 to 6.00.

`COc1cccc(NC(=O)Nc2nc(C)cc(NCCN(C)C)n2)c1` [Compound 145]: the pIC50 is 5.00 to 6.00. Under `COc1cccc(NC(=O)Nc2nc(C)cc(NCCCCO)n2)c1` [Compound 146] stands 5.00 to 6.00; under `COc1cccc(NC(=O)Nc2nc(C)cc(NCC(C)O)n2)c1` (stereo not drawn) [Compound 147], 5.00 to 6.00. Next, `COc1cccc(NC(=O)Nc2nc(C)cc(NCCCCN(C)C)n2)c1` [Compound 148]: 5.00 to 6.00.
